Test results taken from patent US7160684B2, “Methods of selecting compounds for modulation of bladder function” (Wyeth, priority 2000, dated 2007).

What was measured:
Type in all cases: cell-based
[1] = test system: isolated rat bladder smooth muscle cell; assay: Current clamp recording of resting membrane potential, rat cells; details: 10 μM retigabine
Source text: Rat detrusor cells are isolated in a manner previously described for guinea-pig detrusor (Sheldon J H, Norton N W and Argentieri T M (1997) Inhibition of guinea pig detrusor contraction by NS-1619 is associated with activation of BKCa and inhibition of calcium currents. J Pharmacol Exp Thera 283(3): 1193–1200). Male Sprague-Dawley rats (Charles River, Wilmington, Mass.; 200–400 grams) are euthanized by CO2 inhalation and exsanguination. Their urinary bladders are rapidly removed and placed in 37° C. physiological solution with the following composition (mM): Na glutamate (80.0), NaCl (54.7), KCl (5.0), NaHCO3 (25.0), MgCl2.2H2O (2.5), D-glucose (11.8) and CaCl2 (0.2) gassed with O2—CO2, 95%/5% for a final pH of 7.4. The dome of the bladder is isolated from the trigone region and the mucosa is removed. This tissue is then cut into 2–3 mm wide strips and placed into fresh buffer for 1 hour. Tissues are then transferred into 10 ml of an isolation buffer containing the above composition plus collagenase type VIII (1.0 mg/ml) and pronase (0.25 mg/ml). After 10 minutes the isolation buffer is replaced with fresh isolation buffer for an additional 10 min. The tissue is then washed 3 times in fresh collagenase and pronase free solution and stored at room temperature until studied. Cells for study are prepared by triturating 1–2 pieces of detrusor tissue in 2 ml of fresh isolation buffer for 5 minutes with a polished Pasteur pipette, (tip diameter ˜1.5 mm) attached to a modified Harvard Respirator pump (Harvard Apparatus, Southnatic, Mass.) at a rate of 20×/min. with an approximate volume of 5 ml. Cells are then placed on a microscope stage in a temperature regulated tissue bath at 32.5° C. and continually superfused with PSS.
(§1) Single cell recordings are performed with a List-Medical EPC-7 patch clamp amplifier (Adams & List Assoc., Westbury, N.Y.). Pipette electrodes had tip resistances of 2–4 MΩ and are filled with the following composition (mM): KCl (126.0), MgCl2.6H2O (4.5), ATP Mg salt (4.0), GTP tris salt (0.3), creatine PO4 (14.0), D-glucose (9.0), EGTA (9.0), HEPES (9.0). The pH is adjusted to 7.4 with KOH. Signals are acquired (3 kHz high frequency cut-off, 12 bit resolution) using a 586-based personal computer.
Cell resting membrane potential (RMP) is measured in current clamp using the above mentioned instrumentation and pipette solutions. For these experiments nystatin is also added to the pipette solution (100 μg/ml) to allow recording through utilization of the perforated patch technique (Korn, et al, 1991). […] After this time, various antagonists (linopirdine, XE-991) are added to the perfusate and RMP is recorded for an additional 5 minutes. […]

[2] = test system: cultured human bladder smooth muscle cells; assay: Current clamp recording of resting membrane potential, human cells; details: resting membrane potential −8.0±2.8 mV before retigabine; n=3
Protocol: as §1
Cell resting membrane potential (RMP) is measured in current clamp using the above mentioned instrumentation and pipette solutions. For these experiments nystatin is also added to the pipette solution (100 μg/ml) to allow recording through utilization of the perforated patch technique (Korn, et al, 1991). After stable access is achieved, RMP is recorded for a 5 minute control period followed by 5 minute of drug application (0.3 and 1.0 μM). After this time, various antagonists (linopirdine, XE-991) are added to the perfusate and RMP is recorded for an additional 5 minutes. […]
(§2) Rat bladder strips were isolated and prepared as previously described (Wojdan, A., Freeden, C., Woods, M., Oshiro, G., Spinelli, W. et al., J Pharmacol ExpTherap 289:1410–1418 (1999)). […] Message for KCNQ subunits was probed using quantitative rtPCR on an ABI PRISM 7700 Sequence Detection System (TAQMAN). […]

[3] = test system: cultured human bladder smooth muscle cells; assay: Voltage clamp recording of outward current, human cells; details: human bladder smooth muscle cells, FIG. 3d
Protocol: as §1
Whole cell recordings are made using broken patch access. Currents are evoked using either voltage steps (Vh=−50; Vt=−60 to 40 mV) or voltage ramps (−60 to 40 mV at 3.3 mV/sec.). The exact voltage clamp protocols are well known in the art. After stability is achieved control currents are recorded. Next, test compound is added to the superfusate. Currents are recorded for 5 to 10 minutes or until compound effects reach steady state. This is followed either by washout or addition of antagonists (linopirdine, XE-991) to the superfusate.
Cellular electrophysiological studies were conducted using both voltage and current clamp techniques (Hammill, O., P., Marty, A., Neher, E., Sakmann, B. & Sigworth, F. J.: Improved patch-clamp techniques for high-resolution current recordings from cells and cell-free membrane patches. Pflugers Arch 391: 85–100 (1981)) from Sprague-Dawley rat (200–400 grams) bladders as previously described, (Wojdan, A., Freeden, C., Woods, M., Oshiro, G., Spinelli, W. et al., J. Pharmacol Exp Therap 289: 1410–1418 (1999)) and from a human bladder, primary cell culture (Colnetics, San Diego, Calif.). In rat cells, the average, control resting membrane potential (RMP) was −29.0±4.5 mV. […]
as §2

## CCOC(=O)Nc1ccc(NCc2ccc(F)cc2)cc1N [retigabine, N-[2-amino-4-(4-fluorobenzylamino)-phenyl]carbamic acid ethyl ester]
[1]; RMP −40 mV before exposure, single tracing FIG. 3a
  hyperpolarization of the cell: approximately 10 mV
[1]; control RMP −29.0±4.5 mV, n=3
  resting membrane potential (RMP) after exposure: −43.0±3.5 mV
[2]
  hyperpolarization of cells: 11±1.1 mV
[3]
  effect on outward current: increased outward currents
[3]; listed as Retigabine
  effect on outward current: increased an outward current
